1 compound from publication PMC2904477 (Biochemistry, 2010) can be followed below.

For assay [1], the target named is T1, wild-type CB1 receptor (Homo sapiens, UniProt P21554). The settings on record: [3H]CP55940 saturation binding, mean ± SEM.
For assay [2], the target named is T2, K402Q/R405Q/R409Q CB1 receptor (Homo sapiens, UniProt P21554, K402Q/R405Q/R409Q). The settings on record: [3H]CP55940 saturation binding, mean ± SEM.
Assay [3] deals with T3, L404A/F408A/F412A CB1 receptor (Homo sapiens, UniProt P21554, F408A/F412A/L404A). The conditions noted are these: [3H]CP55940 saturation binding, mean ± SEM.
In assay [4] the target is L404A CB1 receptor (Homo sapiens, UniProt P21554, L404A). The conditions noted are these: [3H]CP55940 saturation binding.
In assay [5] the target is F408A CB1 receptor (Homo sapiens, UniProt P21554, F408A). The settings on record: [3H]CP55940 saturation binding.
Assay [6] concerns the target F412A CB1 receptor (Homo sapiens, UniProt P21554, F412A). The settings on record: [3H]CP55940 saturation binding.
Assay [7] addresses L404F/F408L CB1 receptor (Homo sapiens, UniProt P21554, F408L/L404F). The settings on record: [3H]CP55940 saturation binding.
The target in assay [8] is L404F/F412L CB1 receptor (Homo sapiens, UniProt P21554, F412L/L404F). The settings on record: [3H]CP55940 saturation binding.
The target of assay [9] is T1, wild-type CB1 receptor. The settings on record: CP55940 dose-response; wild-type receptor (reference).
In assay [10] the target is T2, K402Q/R405Q/R409Q CB1 receptor. The settings on record: CP55940 dose-response, mean ± SEM.
For assay [11], the target named is T3, L404A/F408A/F412A CB1 receptor. The settings on record: CP55940 dose-response, mean ± SEM.

T2 sequence (P21554 whole entry K402Q/R405Q/R409Q): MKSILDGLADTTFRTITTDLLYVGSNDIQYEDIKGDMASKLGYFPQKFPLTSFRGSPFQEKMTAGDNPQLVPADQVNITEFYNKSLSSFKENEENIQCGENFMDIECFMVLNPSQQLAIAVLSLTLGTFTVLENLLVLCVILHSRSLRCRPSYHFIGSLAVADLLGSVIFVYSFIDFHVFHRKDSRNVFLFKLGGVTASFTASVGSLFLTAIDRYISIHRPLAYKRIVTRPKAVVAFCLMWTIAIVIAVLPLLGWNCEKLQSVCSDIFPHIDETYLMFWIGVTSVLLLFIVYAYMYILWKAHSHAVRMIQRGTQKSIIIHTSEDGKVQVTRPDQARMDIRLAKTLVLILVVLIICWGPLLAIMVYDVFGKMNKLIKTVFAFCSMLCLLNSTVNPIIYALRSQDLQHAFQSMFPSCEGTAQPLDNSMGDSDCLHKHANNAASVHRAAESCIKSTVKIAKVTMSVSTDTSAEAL
T1 sequence (P21554 whole entry): as the sequence (P21554 whole entry K402Q/R405Q/R409Q) above, with Q402K, Q405R, Q409R counted along it
T3 sequence (P21554 whole entry L404A/F408A/F412A): as the sequence (P21554 whole entry K402Q/R405Q/R409Q) above, with Q402K, L404A, Q405R, F408A, Q409R, F412A counted along it
F408A CB1 receptor, sequence (P21554 whole entry F408A): as the sequence (P21554 whole entry K402Q/R405Q/R409Q) above, with Q402K, Q405R, F408A, Q409R counted along it
L404F/F412L CB1 receptor, sequence (P21554 whole entry L404F/F412L): as the sequence (P21554 whole entry K402Q/R405Q/R409Q) above, with Q402K, L404F, Q405R, Q409R, F412L counted along it
L404F/F408L CB1 receptor, sequence (P21554 whole entry L404F/F408L): as the sequence (P21554 whole entry K402Q/R405Q/R409Q) above, with Q402K, L404F, Q405R, F408L, Q409R counted along it
L404A CB1 receptor, sequence (P21554 whole entry L404A): as the sequence (P21554 whole entry K402Q/R405Q/R409Q) above, with Q402K, L404A, Q405R, Q409R counted along it
F412A CB1 receptor, sequence (P21554 whole entry F412A): as the sequence (P21554 whole entry K402Q/R405Q/R409Q) above, with Q402K, Q405R, Q409R, F412A counted along it

As to `CCCCCCC(C)(C)c1ccc([C@@H]2C[C@H](O)CC[C@H]2CCCO)c(O)c1` [CP55940, (1R,3R,4R)-3-[2-hydroxy-4-(1,1-dimethylheptyl)phenyl]-4-(3-hydroxypropyl)cyclohexan-1-ol], the Bmax turned out to be 3499 ± 129 fmol/mg in assay [1]; 3118 ± 142 fmol/mg in [2]; 867 ± 80 fmol/mg in [3]; 3158 ± 135 fmol/mg in assay [4]; 4133 ± 105 fmol/mg in [5]; 4062 ± 80 fmol/mg in assay [6]. Moreover, the Bmax in assay [7] worked out at 4523 ± 239 fmol/mg; in assay [8] it was 4531 ± 177 fmol/mg. For the same compound, the “GTPγS Emax” value came to 100.0 % WT in [9], 80.6 ± 2.0 % WT in [10] and 14.4 ± 1.9 % WT in [11].
